According to ChEMBL document CHEMBL1201862, “PubChem BioAssay data set” (2004):
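96-well plates; 48 h exposure; 5 concentrations. Endpoints by linear interpolation between flanking doses. Not reached: highest tested concentration assigned. GI50: concentration for 50% inhibition of growth.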 Activity calls are given as the source filed them. Cut-off read from the data, not from the text of the source: active = GI50 up to about 1.1 µM and inactive = higher.

Key:
Assay in all cases: DTP human tumour cell line panel, 48 h
[1] = tested on: 786-0
[2] = tested on: A498
[3] = tested on: A549
[4] = tested on: BT-549
[5] = tested on: DU-145
[6] = tested on: K562
[7] = tested on: KM12
[8] = tested on: MCF7
[9] = tested on: MDA-MB-231
[10] = tested on: NCI-H226
[11] = tested on: NCI-H460
[12] = tested on: NCI-H522
[13] = tested on: OVCAR-5
[14] = tested on: SF-268
[15] = tested on: SF-539
[16] = tested on: SK-MEL-5
[17] = tested on: SK-OV-3
[18] = tested on: SNB-75
[19] = tested on: T47D

| Structure (SMILES) | GI50 [1] | GI50 [2] | GI50 [3] | GI50 [4] | GI50 [5] | GI50 [6] | GI50 [7] | GI50 [8] | GI50 [9] | GI50 [10] | GI50 [11] | GI50 [12] | GI50 [13] | GI50 [14] | GI50 [15] | GI50 [16] | GI50 [17] | GI50 [18] | GI50 [19] |
| --- | --- | --- | --- | --- | --- | --- | --- | --- | --- | --- | --- | --- | --- | --- | --- | --- | --- | --- | --- |
| CC[C@@]1(O)C(=O)OCc2c1cc1n(c2=O)Cc2cc3c(NC(=O)CN)cccc3nc2-1 | 0.0612 µM (active) | 0.481 µM (active) | 0.766 µM (active) | 0.171 µM (active) | 0.065 µM (active) | 1.37 µM (inactive) | 2.96 µM (inactive) | 0.0466 µM (active) | 14.5 µM (inactive) | 0.217 µM (active) | < 0.0318 µM (active) | 0.277 µM (active) | 7.8 µM (inactive) | < 0.024 µM (active) | < 0.0241 µM (active) | 0.407 µM (active) | 0.13 µM (active) | 0.0733 µM (active) | < 0.0236 µM (active) |
| c1ccc(NN(Cc2cnccn2)c2ccccc2)cc1 | > 100 µM (inactive) | 28.8 µM (inactive) | 42.2 µM (inactive) | > 100 µM (inactive) | > 100 µM (inactive) | 47.5 µM (inactive) | > 100 µM (inactive) | 44.9 µM (inactive) | 76.9 µM (inactive) | 80.2 µM (inactive) | 91.8 µM (inactive) | 44 µM (inactive) | > 100 µM (inactive) | > 100 µM (inactive) | > 100 µM (inactive) | 40.2 µM (inactive) | > 100 µM (inactive) | > 100 µM (inactive) | 68.4 µM (inactive) |
| CN(C)c1ccc(/C=C/c2cc[n+](C)c3ccccc23)cc1 | 4.27 µM (inactive) | 15.1 µM (inactive) | 3.86 µM (inactive) | 0.437 µM (active) | 5.6 µM (inactive) | 0.418 µM (active) | 2.51 µM (inactive) | 2.29 µM (inactive) | 5.94 µM (inactive) | 2.53 µM (inactive) | 2.9 µM (inactive) | 1.98 µM (inactive) | 6.43 µM (inactive) | 6.1 µM (inactive) | 5.56 µM (inactive) | 2.19 µM (inactive) | 5.81 µM (inactive) | 3.45 µM (inactive) | 0.652 µM (active) |
| Cc1ccc2c(=O)cc(-c3ccc(-c4ccccc4)s3)[nH]c2n1 | 16.1 µM (inactive) | 14.2 µM (inactive) | 58.6 µM (inactive) | > 33.6 µM (inactive) | > 100 µM (inactive) | 11.9 µM (inactive) | > 24.5 µM (inactive) | 3.27 µM (inactive) | 39.7 µM (inactive) | 29.1 µM (inactive) | > 59.7 µM (inactive) | > 19.7 µM (inactive) | > 100 µM (inactive) | > 63 µM (inactive) | 13 µM (inactive) | 2.87 µM (inactive) | 44.5 µM (inactive) | 72.4 µM (inactive) | > 76.7 µM (inactive) |
| Cc1cc(-c2nc3ccc(F)cc3s2)ccc1NC(=O)C(N)CCCCN (stereo not drawn) | 3.21 µM (inactive) | 11 µM (inactive) | 2.64 µM (inactive) | 14.4 µM (inactive) | 12.3 µM (inactive) | 3.45 µM (inactive) | 2.02 µM (inactive) | 0.0184 µM (active) | 9.38 µM (inactive) | 2.44 µM (inactive) | 1.82 µM (inactive) | 5.9 µM (inactive) | 7.64 µM (inactive) | 6.7 µM (inactive) | 3.27 µM (inactive) | 9.68 µM (inactive) | 13.3 µM (inactive) | 4.83 µM (inactive) | 0.027 µM (active) |
| CCOC(=O)C(CCSC)(CCSC)C(=O)OCC | > 100 µM (inactive) | > 100 µM (inactive) | > 100 µM (inactive) | > 100 µM (inactive) | > 100 µM (inactive) | > 100 µM (inactive) | > 100 µM (inactive) | > 100 µM (inactive) | > 100 µM (inactive) | > 100 µM (inactive) | > 100 µM (inactive) | > 100 µM (inactive) | > 100 µM (inactive) | > 100 µM (inactive) | > 100 µM (inactive) | > 100 µM (inactive) | 27.7 µM (inactive) | > 100 µM (inactive) | > 100 µM (inactive) |
| CC1(C)CCCCCCCCCC(C)(CCCCCCCCCCCCO)C1=O (stereo not drawn) | 18.6 µM (inactive) | 18.7 µM (inactive) | 16.1 µM (inactive) | 16.6 µM (inactive) | 17.7 µM (inactive) | 20 µM (inactive) | 17.1 µM (inactive) | 16.8 µM (inactive) | 15.3 µM (inactive) | 9.84 µM (inactive) | 18.3 µM (inactive) | 16.5 µM (inactive) | 18.5 µM (inactive) | 17.3 µM (inactive) | 16.6 µM (inactive) | 19.5 µM (inactive) | 18.8 µM (inactive) | 16.1 µM (inactive) | 16.8 µM (inactive) |
